In brackets after ≈: the same amount, converted by molar mass. Activity calls are given as the source filed them. No cut-off for these calls is given here. Positions of bridges follow the written chain, without caps; N, C: chain ends. Non-standard residues stand in square brackets, D forms with d. Residues, ends and D or L forms follow the SMILES beside them. Arg(Nω-βLac) = N=C(NCCC[C@H](N)C(=O)O)N[C@@H]1O[C@H](CO)[C@@H](O[C@@H]2O[C@H](CO)[C@H](O)[C@H](O)[C@H]2O)[C@H](O)[C@H]1O; S5 = C=CCCC[C@](C)(N)C(=O)O
How the values were obtained:
[1] = tested on: Klebsiella pneumoniae; assay: Antimicrobial activity against Klebsiella pneumoniae ATCC 13883 assessed as growth inhibition measured after 8 hrs incubation by standard broth dilution assay; type: functional
[2] = tested on: Pseudomonas aeruginosa; assay: Antimicrobial activity against Pseudomonas aeruginosa ATCC 27853 assessed as growth inhibition measured after 8 hrs incubation by standard broth dilution assay; type: functional
[3] = tested on: Streptococcus pneumoniae; assay: Antimicrobial activity against Streptococcus pneumoniae ATCC 49619 assessed as growth inhibition measured after 8 hrs incubation by standard broth dilution assay; type: functional
[4] = tested on: Cell membrane; assay: Binding affinity to methicillin-resistant Staphylococcus aureus ATCC 43300 cell membrane treated with FITC labelled peptides at MIC measured after 1.5 hr by CLSM imaging analysis; type: subcellular
[5] = tested on: Cell membrane; assay: Induction of cell membrane damage in Klebsiella pneumoniae ATCC 13883 assessed as increase in red fluorescence at MIC measured after 1 hr incubation by PI based confocal microscopy; type: subcellular
[6] = tested on: Cell membrane; assay: Induction of cell membrane damage in Klebsiella pneumoniae ATCC 13883 assessed as increase in green fluorescence at MIC measured after 1 hr incubation by SYTO9 confocal microscopy; type: subcellular
[7] = tested on: Cell membrane; assay: Induction of cell membrane damage in methicillin-resistant Staphylococcus aureus ATCC 43300 assessed as increase in green fluorescence at MIC measured after 1 hr incubation by SYTO9 confocal microscopy; type: subcellular
[8] = tested on: Cell membrane; assay: Induction of cell membrane damage in Klebsiella pneumoniae ATCC 13883 assessed as increase in red fluorescence at MIC measured after 1 hr incubation by PI based flow cytometry; type: subcellular
[9] = tested on: Cell membrane; assay: Induction of cell membrane damage in methicillin-resistant Staphylococcus aureus ATCC 43300 assessed as increase in red fluorescence at MIC measured after 1 hr incubation by PI based flow cytometry; type: subcellular
[10] = tested on: Cell membrane; assay: Induction of cell membrane damage in Klebsiella pneumoniae ATCC 13883 assessed as corrugation, blebbing, breakage, and fragmentation at MIC measured after 1 hr incubation by Scanning electron microscopy; type: subcellular
[11] = tested on: Cell membrane; assay: Induction of cell membrane damage in Klebsiella pneumoniae ATCC 13883 assessed as significant plasma membrane rupture, cytosolic membrane and outer membrane separation, and cytoplasmic leakage at MIC measured after 1 hr incubation by Transmission electron microscopy; type: subcellular
[12] = tested on: Cell membrane; assay: Induction of cell membrane damage in methicillin-resistant Staphylococcus aureus ATCC 43300 assessed as significant plasma membrane rupture, […], and cytoplasmic leakage at MIC measured after 1 hr incubation by Transmission electron microscopy; type: subcellular
[13] = tested on: Klebsiella pneumoniae; assay: Antibiofilm activity in Klebsiella pneumoniae ATCC 13883 assessed as prevention of biofilm formation at 0.5 to 4 times of MIC measured after 24 hrs by crystal violet staining based assay; type: functional, organism-based
[14] = tested on: Staphylococcus aureus; assay: Antibiofilm activity in methicillin-resistant Staphylococcus aureus ATCC 43300 assessed as reduction in biofilm formation at 4.6 ug/ml measured after 24 hrs by crystal violet staining based assay relative to control; type: functional; parameters: scale not given: the % may be the effect or the level left; details: dose 4.6 µg/ml
[15] = tested on: Klebsiella pneumoniae; assay: Antibacterial activity against Klebsiella pneumoniae ATCC 13883 assessed as reduction in bacterial count at 4.6 ug/ml in bio-film adjusted BM2 medium; type: functional, organism-based; details: dose 4.6 µg/ml
[16] = Toxicity in mouse skin assessed as abscesses and visual lesions at 40 mg/kg, sc by histological analysis; type: organism-based; details: in vivo
[17] = Toxicity in mouse assessed as inflammatory infiltration at 40 mg/kg, sc by H and E staining based assay; type: organism-based; details: in vivo
[18] = tested on: Staphylococcus aureus; assay: In vivo antibacterial activity against methicillin-resistant Staphylococcus aureus ATCC 43300 infected locally in full thickness skin wound mouse model assessed as reduction in bacterial load in skin wound at 1 mg/kg treated with absorbable gelatin sponge measured after 3 days; type: functional, organism-based; details: time 3.0 day
[19] = tested on: Staphylococcus aureus; assay: In vivo antibacterial activity against methicillin-resistant Staphylococcus aureus ATCC 43300 infected locally in full thickness skin wound mouse model assessed as reduction in bacterial load in skin wound at 4 mg/kg treated with absorbable gelatin sponge measured after 3 days; type: functional, organism-based; details: time 3.0 day
[20] = tested on: Staphylococcus aureus; assay: In vivo antibacterial activity against methicillin-resistant Staphylococcus aureus ATCC 43300 infected locally in full thickness skin wound mouse model assessed as reduction in bacterial load in skin wound at 4 mg/kg treated with absorbable gelatin sponge measured after 7 days; type: functional, organism-based; details: time 7.0 day
[21] = tested on: Staphylococcus aureus; assay: In vivo antibacterial activity against methicillin-resistant Staphylococcus aureus ATCC 43300 infected locally in full thickness skin wound mouse model assessed as decrease in edema and ulcerative tissue in wound at 4 mg/kg treated with absorbable gelatin sponge measured after 7 days; type: functional, organism-based; details: time 7.0 day
[22] = tested on: Klebsiella pneumoniae; assay: In vivo antibacterial activity against Klebsiella pneumoniae ATCC 13883 induced bacterial pneumonia mouse model assessed as reduction in bacterial load in lungs at 4 mg/kg, injected into trachea after 24 hrs of infection measured after 3 to 7 days; type: functional, organism-based
[23] = tested on: Klebsiella pneumoniae; assay: In vivo antibacterial activity against Klebsiella pneumoniae ATCC 13883 induced bacterial pneumonia mouse model assessed as reduction in bacterial infection induced weight loss at 1 mg/kg, injected into trachea after 24 hrs of infection measured after 3 to 7 days; type: functional, organism-based
[24] = tested on: Klebsiella pneumoniae; assay: In vivo antibacterial activity against Klebsiella pneumoniae ATCC 13883 induced bacterial pneumonia mouse model assessed as increase in survival of mouse at 1 mg/kg, injected into trachea after 24 hrs of infection measured after 3 to 7 days; type: functional, organism-based
[25] = tested on: Klebsiella pneumoniae; assay: In vivo antibacterial activity against Klebsiella pneumoniae ATCC 13883 induced bacterial pneumonia mouse model assessed as increase in survival of mouse at 4 mg/kg, injected into trachea after 24 hrs of infection measured after 3 to 7 days; type: functional, organism-based
[26] = tested on: Klebsiella pneumoniae; assay: (§1) In vivo antibacterial activity against Klebsiella pneumoniae ATCC 13883 induced bacterial pneumonia mouse model assessed as reduction in bacterial infection induced inflammatory response in lungs by measuring large number of alveoli at 1 mg/kg, injected into trachea after 24 hrs of infection measured after 3 to 7 days by H and E staining based assay; type: functional, organism-based
[27] = tested on: Klebsiella pneumoniae; assay: as §1, with “at 4” for “at 1”; type: functional, organism-based
[28] = tested on: Klebsiella pneumoniae; assay: In vivo antibacterial activity against Klebsiella pneumoniae ATCC 13883 induced bacterial pneumonia mouse model assessed as reduction in bacterial infection induced IL-1beta level in lung tissue at 4 mg/kg, injected into trachea after 24 hrs of infection measured after 3 to 7 days; type: functional, organism-based
[29] = tested on: Klebsiella pneumoniae; assay: In vivo antibacterial activity against Klebsiella pneumoniae ATCC 13883 induced bacterial pneumonia mouse model assessed as reduction in bacterial infection induced TNF-alpha level in lung tissue at 4 mg/kg, injected into trachea after 24 hrs of infection measured after 3 to 7 days; type: functional, organism-based
[30] = tested on: Klebsiella pneumoniae; assay: In vivo antibacterial activity against Klebsiella pneumoniae ATCC 13883 induced bacterial pneumonia mouse model assessed as reduction in bacterial infection induced IL-1beta mRNA expression in lung tissue at 4 mg/kg, injected into trachea after 24 hrs of infection measured after 3 to 7 days; type: functional, organism-based
[31] = tested on: Klebsiella pneumoniae; assay: In vivo antibacterial activity against Klebsiella pneumoniae ATCC 13883 induced bacterial pneumonia mouse model assessed as reduction in bacterial infection induced IL-6 mRNA expression in lung tissue at 4 mg/kg, injected into trachea after 24 hrs of infection measured after 3 to 7 days; type: functional, organism-based
[32] = tested on: Klebsiella pneumoniae; assay: In vivo antibacterial activity against Klebsiella pneumoniae ATCC 13883 induced bacterial pneumonia mouse model assessed as reduction in bacterial infection induced TNF-alpha mRNA expression in lung tissue at 4 mg/kg, injected into trachea after 24 hrs of infection measured after 3 to 7 days; type: functional, organism-based

## CC(=O)N[C@@H](CCCCN)C(=O)N[C@@H](CCCCN)C(=O)N[C@@H](CCCNC(=N)N)C(=O)N[C@H](C(=O)N[C@@H](CCCCN)C(=O)N[C@@H](CCCCN)C(=O)N[C@@H](CCCNC(=N)N)C(=O)N[C@@]1(C)CCC/C=C\CCC[C@@](C)(C(=O)N[C@@H](CCCCN)C(=O)N[C@@]2(C)CCC/C=C\CCC[C@@](C)(C(=O)N[C@@H](CC(C)C)C(=O)N[C@@H](CCCCN)C(=O)N[C@@H](CCCCN)C(=O)N3CCC[C@H]3C(=O)N[C@H](C(=O)N[C@@H](CCCNC(=N)N[C@@H]3O[C@H](CO)[C@@H](O[C@@H]4O[C@H](CO)[C@H](O)[C@H](O)[C@H]4O)[C@H](O)[C@H]3O)C(N)=O)C(C)C)NC(=O)[C@H](CCCNC(=N)N)NC(=O)[C@H](Cc3c[nH]c4ccccc34)NC(=O)[C@H](Cc3ccc(O)cc3)NC2=O)NC(=O)[C@H](CC(C)C)NC(=O)[C@H](CCCCN)NC(=O)[C@H](Cc2ccccc2)NC1=O)C(C)C (Ac-KKRVKKR[S5]FKL[S5]K[S5]YWR[S5]LKKPV[Arg(Nω-βLac)]-NH2; staple (Z) 8-12, 14-18)
[1]
  MIC: 1.1 µg/mL (≈ 0.31 µM)
[2]
  MIC: 1.1 µg/mL (≈ 0.31 µM)
[3]
  MIC: 1.1 µg/mL (≈ 0.31 µM)
[4]
  Activity: Active; Compound Exhibited Brighter Red
[5]
  Activity: Active
[6]
  Activity: Active
[7]
  Activity: Active
[8]
  Activity: Active
[9]
  Activity: Active
[10]
  Activity: Active
[11]
  Activity: Active
[12]
  Activity: Active
[13]
  Activity: Dose-dependent-effect
[14]
  Activity: 80.13%
[15]
  Activity: inactive
[16]
  Activity: Non-toxic
[17]
  Activity: Toxic
[18]
  Activity: Active
[19]
  Activity: Active
[20]
  Activity: Active
[21]
  Activity: Active
[22]
  Activity: Active; Compound Showed Superior Therapeutic Effect Than Slp-0
[23]
  Activity: Active
[24]
  Activity: Active
[25]
  Activity: Active
[26]
  Activity: Active
[27]
  Activity: Active
[28]
  Activity: Active
[29]
  Activity: Active
[30]
  Activity: Active
[31]
  Activity: Active
[32]
  Activity: Active

Source: ChEMBL document CHEMBL6153110, “Peptide Double-Stapling and Arginine N-Glycosylation Triggered the Development of Therapeutic Antimicrobial Peptides Capable of Killing Drug-Resistant Bacteria in Mice” (J Med Chem, 2025)
